Like-named read-outs stand apart in the source and are kept apart here.
How the values were obtained:
[1] = target: anti-digoxin 26-10 murine monoclonal antibody; conditions: literature (Schildbach et al., 1993); cited from earlier work
[2] = test system: anti-digoxin 26-10 scFv(Dig) variant HC100K (H:Trp-100→Lys); type: binding, murine; conditions: for kon: hapten-BSA conjugate immobilized on CM5 chip
Procedure: (§1) Single chain Fv mutants were produced and purified according to Burks (Burks and Iverson, 1995). The scFv genes from second round overlap extension PCR were ligated into pET25b plasmid and transformed into E. Coli BL21 (DE3) strain. Inclusion bodies that consist of scFvs were isolated from cell lysates and dissolved in 8 M urea. Soluble scFvs were purified by a metal chelating column (IMAC) and refolded by dialyzing against Tris buffer (50 mM Tris. HCl, pH 7.4, 500 mM KCl, 10% glycerol). Protein concentrations were determined by OD280 (Σ=44850) (Pace et al., 1995; Nieba et al., 1989). For the kinetics measurement, antibodies were further purified by a size exclusion gel filtration column Sepharose-75 (Pharmacia Biosensor AB, Sweden) to remove any dimeric or polymeric proteins.
(§2) The digoxin-BSA, digitoxin-BSA, digoxigenin-BSA and ouabain-BSA conjugates were immobilized on the surface of a sensor chip CM5 (approximately 400 RU) following the standard protocol from Pharmacia Biosensor. All kinetics experiments were performed in buffer containing 150 mM NaCl, 10 mM HEPES, 3.4 mM EDTA, and 0.005% P20, pH 7.4 at 25° C. with a flowrate of 60 μl/min (Myszka et al., 1997; Zeder-Lutz et al., 1997; Oddie et al., 1997). ScFv proteins over the concentration range of 25 nM to 400 nM were added to the chip for the association rate measurements. To prevent the rebinding of antibodies on the chip surface, soluble haptens (up to 1 mM) were added into elution buffer for the dissociation rate measurements (Schier et al., 1996). The antibody bound chip was regenerated by 50% ethylene glycol, pH 10. The values of association and dissociation rate of antibodies were calculated using BIAevaluation software from Pharmacia Biosensor. kon was determined from a plot of (ln(dR/dt))/t versus concentration (Karlson et al., 1991). koff was determined from a plot of ln(Ro/R) versus time.
(§3) In additional studies, values for the association and dissociation rate constants (kon and koff, respectively) were measured using a BIAcore 1000 for the wild-type and 14 selected mutant scFv antibodies. […] The selected scFv antibodies were expressed and purified following the procedure described by Burks and Iverson (1995). In each case, care was taken to insure that the kinetic values measured on the BlAcore are free of artifacts due to rebinding or avidity effects arising from multimeric scFvs.

[3] = test system: anti-digoxin 26-10 scFv(Dig) variant HC100H (H:Trp-100→His); type: binding, murine; conditions: for kon: hapten-BSA conjugate immobilized on CM5 chip
Procedure: as §1, §2, §3

[4] = test system: anti-digoxin 26-10 scFv(Dig) variant LC96F (L:Pro-96→Phe); type: binding, murine
Procedure: as §1, §2, §3

[5] = test system: anti-digoxin 26-10 scFv(Dig) variant HC100R (H:Trp-100→Arg); type: binding, murine; conditions: for kon: hapten-BSA conjugate immobilized on CM5 chip
Procedure: as §1, §2, §3

[6] = test system: anti-digoxin 26-10 scFv(Dig) variant HC50F (H:Tyr50→Phe); type: binding, murine; conditions: for kon: hapten-BSA conjugate immobilized on CM5 chip
Procedure: as §1, §2, §3

[7] = test system: anti-digoxin 26-10 scFv(Dig) variant HC9ST (heavy chain mutant); type: binding, murine; conditions: for kon: hapten-BSA conjugate immobilized on CM5 chip
Procedure: as §1, §2, §3

[8] = test system: anti-digoxin 26-10 scFv(Dig) variant LC94F (light chain residue 94→Phe); type: binding, murine; conditions: for kon: hapten-BSA conjugate immobilized on CM5 chip
Procedure: as §1, §2, §3

[9] = test system: anti-digoxin 26-10 scFv(Dig) variant LC94Y (L:Val-94→Tyr); type: binding, murine; conditions: for kon: hapten-BSA conjugate immobilized on CM5 chip
Procedure: as §1, §2, §3

[10] = test system: anti-digoxin single chain Fv scFv(Dig) derived from anti-digoxin 26-10 murine monoclonal antibody, wild type (WT), SEQ ID NO:132; type: binding; conditions: for kon: hapten-BSA conjugate immobilized on CM5 chip
Procedure: as §1, §2, §3

[11] = SPR, hapten-BSA conjugate on chip, pH 7.4, 25° C.
[12] = SPR, hapten-BSA conjugate on chip, soluble hapten in elution buffer, pH 7.4, 25° C.

Structure (SMILES)	Ka [1]	kon ([2]; SPR, pH 7.4, 25° C.)	kon ([3]; SPR, pH 7.4, 25° C.)	kon ([5]; SPR, pH 7.4, 25° C.)	kon ([6]; SPR, pH 7.4, 25° C.)	kon ([7]; SPR, pH 7.4, 25° C.)	kon ([8]; SPR, pH 7.4, 25° C.)	kon ([9]; SPR, pH 7.4, 25° C.)	kon ([10]; SPR, pH 7.4, 25° C.)	koff [2, 12]	Ka [3, 11]	koff [3, 12]	koff [4, 12]	koff [5, 12]	koff [6, 12]	Ka [7, 11]	koff [7, 12]	koff [8, 12]	koff [9, 12]	koff [10, 12]	other results
C[C@]12CC[C@H](O)C[C@H]1CC[C@@H]1[C@@H]2C[C@@H](O)[C@]2(C)[C@@H](C3=CC(=O)OC3)CC[C@]12O [digoxigenin]	approximately 9×10^9 M^-1	–	–	–	–	–	–	–	–	–	–	–	–	–	–	–	–	–	–	–	–
C[C@H]1O[C@@H](O[C@H]2[C@@H](O)C[C@H](O[C@H]3[C@@H](O)C[C@H](O[C@H]4CC[C@@]5(C)[C@H](CC[C@@H]6[C@@H]5C[C@@H](O)[C@]5(C)[C@@H](C7=CC(=O)OC7)CC[C@]65O)C4)O[C@@H]3C)O[C@@H]2C)C[C@H](O)[C@@H]1O [Digoxin, digoxin]	approximately 9×10^9 M^-1	940000 M⁻¹ s⁻¹	1e+06 M⁻¹ s⁻¹	1.3e+06 M⁻¹ s⁻¹	1.5e+06 M⁻¹ s⁻¹	1.4e+06 M⁻¹ s⁻¹	1.2e+06 M⁻¹ s⁻¹	1.2e+06 M⁻¹ s⁻¹	1.2e+08 M⁻¹ s⁻¹	–	–	–	–	–	–	–	–	–	–	–	koff ([2]; pH 7.4): 8.0 × 10^-2; koff ([3]; pH 7.4): 2.0 × 10^-3; kon ([4]; SPR, hapten-BSA conjugate immobilized on CM5 chip, pH 7.4, 25° C.): 1e+08 M⁻¹ s⁻¹; Ka [4, 11]: 500000 M⁻¹; koff ([4]; pH 7.4): 2; koff ([5]; pH 7.4): 5.0 × 10^-3; koff ([6]; pH 7.4): 5.8 × 10^-4; koff ([7]; pH 7.4): 5.4 × 10^-3; koff ([8]; pH 7.4): 1.9 × 10^-3; koff ([9]; pH 7.4): 5.2 × 10^-3; koff ([10]; pH 7.4): 7.0 × 10^-4
C[C@H]1O[C@@H](O[C@H]2[C@@H](O)C[C@H](O[C@H]3[C@@H](O)C[C@H](O[C@H]4CC[C@@]5(C)[C@H](CC[C@@H]6[C@@H]5CC[C@]5(C)[C@@H](C7=CC(=O)OC7)CC[C@]65O)C4)O[C@@H]3C)O[C@@H]2C)C[C@H](O)[C@@H]1O [Digitoxin, digitoxin]	approximately 9×10^9 M^-1	–	–	930000 M⁻¹ s⁻¹	960000 M⁻¹ s⁻¹	1e+06 M⁻¹ s⁻¹	1.3e+06 M⁻¹ s⁻¹	1.15e+06 M⁻¹ s⁻¹	1e+06 M⁻¹ s⁻¹	0.09	0 M⁻¹	9.7 × 10^-3	0.014	8.2 × 10^-3	1.7 × 10^-3	9e+06 M⁻¹	0.11	1.3 × 10^-3	2.7 × 10^-3	1.3 × 10^-3	Ka [2, 11]: 0 M⁻¹; Ka [4, 11]: 8.4e+07 M⁻¹
C[C@@H]1O[C@@H](O[C@H]2C[C@@H](O)[C@]3(CO)[C@H]4[C@H](O)C[C@]5(C)[C@@H](C6=CC(=O)OC6)CC[C@]5(O)[C@@H]4CC[C@]3(O)C2)[C@H](O)[C@H](O)[C@H]1O [Ouabain, ouabain]	–	–	1e+06 M⁻¹ s⁻¹	1e+06 M⁻¹ s⁻¹	1e+06 M⁻¹ s⁻¹	100000 M⁻¹ s⁻¹	1e+06 M⁻¹ s⁻¹	1e+06 M⁻¹ s⁻¹	1e+06 M⁻¹ s⁻¹	0.60	1.1e+07 M⁻¹	0.09	0.3	0.12	0.013	6.7e+06 M⁻¹	0.12	1.0 × 10^-2	1.7 × 10^-2	1.5 × 10^-2	Ka [5, 11]: 8.3e+06 M⁻¹; Ka [6, 11]: 7.9e+07 M⁻¹; fold lower affinity than for digoxin, digitoxin and digoxigenin [1]: 42 fold
C[C@]12CC[C@H](O)C[C@H]1CC[C@@H]1[C@@H]2CC[C@]2(C)[C@@H](C3=CC(=O)OC3)CC[C@]12O [Digitoxigenin]	–	1e+06 M⁻¹ s⁻¹	1e+06 M⁻¹ s⁻¹	–	1e+06 M⁻¹ s⁻¹	–	1e+06 M⁻¹ s⁻¹	1.1e+06 M⁻¹ s⁻¹	1e+06 M⁻¹ s⁻¹	1.48	1e+08 M⁻¹	9.7 × 10^-2	0.169	1.7 × 10^-1	2.2 × 10^-2	7e+08 M⁻¹	1.00	8.9 × 10^-2	1.8 × 10^-1	2.3 × 10^-2	Ka [5, 11]: 4.2e+07 M⁻¹; Ka [6, 11]: 4.5e+08 M⁻¹
